Structure (SMILES)	melting point
CCNc1nc(NCc2ccco2)nc(Nc2ccc3nc(C)sc3c2)n1	97 to 99 °C
Nc1nc(=O)n([C@@H]2CC[C@H](CO)O2)cc1F	147 to 149 °C
COC(=O)C(=O)c1cc(OC)c(OCCOc2ccc3ccccc3c2)c(OC)c1	69 to 71 °C
COc1ccc(S(=O)(=O)N2Cc3ccccc3N(C(=O)c3ccc(OC)cc3OC)CC2C(=O)NO)cc1 (stereo unspecified)	189 to 191 °C
CCCOc1ccccc1C1=NC(=O)C2=CN=NC2=N1	170 to 171 °C
CCS(=O)(=O)Nc1cccc(C)c1C(N)c1cccn2c(C)c(C)nc12 (stereo unspecified)	240 to 242 °C
N#Cc1ccc(-c2ccc3c(c2)CCc2nn(-c4ccccn4)c(O)c2-3)cc1	274 to 275 °C
CC(C)c1cccc(C(C)C)c1NS(=O)(=O)NC(=O)N(Cc1ccccc1)Cc1ccccc1	140 to 142 °C
CC1(C)CC2(CC(C)(C)N1)NC(C)(CO)CO2 (stereo unspecified)	90 to 92 °C
CC(O)c1ccc(F)c(-c2ccc3nc(-c4ccc(Cl)cc4)cn3c2)c1 (stereo unspecified)	180 to 182 °C
N#Cc1cccn(-c2cccnc2Cl)c1=O	145 °C
COc1ccc(-n2ncc(C(=O)N[C@H](C)[C@](O)(Cn3cncn3)c3ccc(F)cc3F)c2C)cc1	176 to 177 °C
Cc1cccc(NC(=O)NC2N=C(c3ccccc3F)c3ccccc3N(Cc3cc(C(C)(C)C)ccn3)C2=O)c1 (racemic)	142 to 144 °C
CN(Cc1ccc([N+](=O)[O-])cc1)C1CCN(c2ccc([N+](=O)[O-])cc2)CC1	119 to 120 °C
Cc1ccc2c(C(=O)NC3CN4CCC3CC4)cnn2c1 (stereo unspecified)	142 to 144 °C
O=C(CCc1cnoc1-c1ccccc1)Nc1cnccn1	163 to 164 °C
Cc1cc2c(=O)n(CCN3CCC(Nc4nc5ccccc5n4Cc4ccc(F)cc4)CC3)c(=S)[nH]c2s1	236 °C
O=c1oc(-c2ccccc2)nc2cccc(Cl)c12	151 to 153 °C
CCN1c2ncccc2C(=O)Nc2c(C(F)(F)F)cc(C)nc21	150 to 151 °C
COCc1nc(C(C)(C)C)c[nH]1	65 to 66 °C
C=C(C)C(=O)NC1(C(=O)O)CCCCC1	176 to 178 °C
Nc1nc2c(nc(Br)n2Cc2cccnc2)c(=O)[nH]1	> 300 °C
COc1ccc(N)c(C(=O)CS(=O)(=O)N(C)C)c1	198 to 200 °C
CC(C)(C)N(NC(=O)c1cccs1)C(=O)c1ccccc1	> 190 °C

Structure (SMILES)	melting point
COc1cc(OC)nc(Oc2cccc3c2C(=O)OC3F)n1 (stereo unspecified)	172 to 174 °C
O=C(NN1CCCCC1)c1ccc(-c2ccc(Cl)cc2)c(-c2ccc(Cl)cc2Cl)c1	182 °C
Cn1cc(-c2ccc(C34CCCN(CC3)C4)cn2)cn1 (racemic)	138 to 140 °C
COC(=O)c1cncc(O)c1C(=O)OC	136 to 137 °C
Cc1ccc2ccccc2c1NC1COC(=O)C1 (stereo unspecified)	92 to 94 °C
CCCNC(=O)C1(CCCc2ccc(N3C(=O)c4ccccc4C3=O)cc2)c2ccccc2-c2ccccc21	148 to 151 °C
NOCc1cn(C(c2ccccc2)(c2ccccc2)c2ccccc2)nn1	144 to 145 °C
Fc1ccc(Oc2ccnc3cc(Cl)ccc23)cc1	89 to 91 °C
CC(=O)Cn1c(=O)n(C2CCN(CCCC(c3ccc(F)cc3)c3ccc(F)cc3)CC2)c2ccc(Cl)cc21	175 °C
COc1ccnc(CSc2nc3c(OC(F)F)c(OC)c(OC)cc3[nH]2)c1C	177 to 179 °C
COC(=O)N(C)C1CN(C(=O)Nc2ccc(OC(F)(F)F)cc2)N=C1c1ccc(O)cc1 (stereo unspecified)	228 to 233 °C
CCCc1nc2c(N)nc3cccnc3c2n1CCCCS(=O)(=O)NC	174 to 175 °C
CC(C)[C@H](NC(=O)OCc1ccccc1)C(=O)N(CC(=O)O)Cc1ccccc1	41 to 45 °C
Cc1cc(=O)oc2cc(NC(=O)CO)ccc12	253 to 254 °C
CC(=O)c1ccc(C2CC(C)(C)CC(C)(C)C2)c(Cl)c1	64 °C
CN(C(=O)OCc1ccccc1)[C@@H](CC(N)=O)C(=O)N[C@@H](Cc1ccccc1)[C@H](O)C(=O)N1CCC[C@H]1C(=O)NC(C)(C)C	100 to 103 °C
C#CC1(O)C=CC2C3CCC4=CC(=O)CCC4(C)C3CCC21C (stereo unspecified)	206 °C
CCCCCCCCCCCCCCCCCCC1CC(=O)N(c2ccc(N)cc2O)C1=O (stereo unspecified)	85 to 90 °C
CCN(CC)CCNC(=O)c1cc(Cl)c(N)cc1OCCCS(C)=O (stereo unspecified)	116 to 117 °C
Cc1c(Cc2cccc(C(F)(F)F)c2)oc2c(-c3cc(C(=O)NCCO)ccn3)cccc12	205 to 206 °C
Fc1ccc2c(C3=CCC4(CC3)OCCO4)c[nH]c2c1	196 to 197 °C
CC(C)(C)c1cc(NS(C)(=O)=O)cc(C(C)(C)C)c1O	149 to 151 °C
CN(C(=O)OC(C)(C)C)c1cc(Oc2cccc(-c3ccccc3)c2)ccc1N	114 to 115 °C
O=C(O)CCCc1cc2cc(Cl)ccc2n1S(=O)(=O)c1ccc2nsnc2c1	172 to 175 °C

Structure (SMILES)	melting point
COC(=O)c1cc(Cl)ccc1OCc1ccccc1	54.5 to 55 °C
COc1ccc(-c2ccc(OC)nn2)c(OCC(O)CNC(C)(C)C)c1 (stereo unspecified)	114 to 116 °C
COc1ccccc1COc1ccc(S(=O)(=O)c2ccc(C)nc2Br)cc1	76 to 78 °C
C#CCN(C(C)C)S(=O)(=O)NC(=O)c1cc(-n2c(=O)cc(C(F)(F)F)n(C)c2=S)c(F)cc1Cl	94 to 105 °C
COc1cc(Nc2c(C#N)cnc3cc(-c4cccc(CN5CCN(C)CC5)c4)ccc23)c(Cl)cc1Cl	104 to 106 °C
CCCc1c(OCCCSc2ccc(C(=O)COC(C)=O)cn2)ccc(C(C)=O)c1O	93 to 95 °C
CNC(=O)c1c(NC(=O)c2cc(C(F)(F)F)nn2-c2ncccc2Cl)c(Br)cc2cn[nH]c12	> 255 °C
CCNC(=O)NCCC1CCCc2ccc(OC)cc21 (stereo unspecified)	70 to 71 °C
CC1(CBr)SC2C(NC(=O)COc3ccccc3)C(=O)N2C1C(=O)O (stereo unspecified)	164 to 166 °C
COc1cc2ncnc(N3CCN(C(=S)Nc4ccc(S(=O)(=O)N5CCCCC5)cc4)CC3)c2cc1OC	149 to 150 °C
CCOCc1nc2c(N)nc3cc(N4CCCC4=O)cnc3c2n1CC(C)C	198 °C
CCOCCOC(=O)c1cc2cc(Br)ccc2nn1	128 to 130 °C
COc1ccc(N(Cc2cnn(Cc3ccc(F)cc3)c2)C(=O)C2CCCc3c(O)cccc32)cc1 (stereo unspecified)	143 to 146 °C
O=Cc1ccc2ccn(C(c3ccccc3)c3cccc(C=Cc4ccc5ccccc5n4)c3)c2c1 (stereo unspecified)	75 °C
C=CCn1c2c(ccc1=O)C(NCCc1ccccc1)CCC2 (stereo unspecified)	60 to 62 °C
CN1CCN(c2cc(F)cc3c(=O)cc(C(=O)Nc4ccc(N5CCN(C(=O)CCO)CC5)cc4)oc23)CC1	195 to 199 °C
COc1cc2ncnc(N3CCCCCc4ccccc43)c2cc1OC	204 to 207 °C
CN(Cc1cc2c3c(c1)c(=O)c(C(=O)NCc1ccc(F)cc1)cn3CC(=O)N2C)C[C@@H](O)c1cccnc1	108 to 110 °C
CC(C)(CCCCC(=O)CCCCC(C)(C)C(=O)O)C(=O)O	60 to 61.5 °C
O=C1Cc2ccc(F)cc2C(c2ccc(Cl)cc2)N1 (stereo unspecified)	131 to 133 °C
CC(=O)N1CC(=O)c2ccccc21	138 °C
CCN(CC)C(=O)n1ccc(S(=O)(=O)c2ccc(Cl)cc2Cl)n1	85 to 86 °C
COc1ccc(C=Cc2c(Cl)cncc2Cl)c2c1CC1(CCCC1)O2	99 to 101 °C
CN1C2CCCC1CC(NC(=O)c1cccc3nc(-c4ccc(Cl)cc4)oc13)C2 (stereo unspecified)	193 to 196 °C

Structure (SMILES)	melting point
CNc1cc(Cc2cnc(N)nc2N)cc(N(C)C)c1OC	183 °C
COc1ccc2c(n1)c(CC[N+](=O)[O-])c1n2CCCC1	96 to 97 °C
Cc1ccc2nc(-c3ccc([N+](=O)[O-])cc3)c(CNC(=O)CC(C)C)n2c1	221 to 222 °C
COc1cc(CCCC2SC(=O)NC2=O)ccc1OCc1coc(CCc2ccccc2)n1 (stereo unspecified)	126 to 127 °C
CC(C)(C)OC(=O)N[C@@H]1Cc2ccccc2C[C@H]1O (relative stereo)	149 to 150 °C
CCOc1ccc(CCCc2ccncc2)cc1	79 to 81 °C
COCCOc1ccc(OCC(O)CNCCNC(=O)N2CCOCC2)cc1 (stereo unspecified)	69 °C
CCOC(=O)C=Cc1ccc(C(=O)Cl)cc1	76.8 °C
CCCCCCCOc1ccc(COc2ccc(-c3ccc(OC(C)CCCCCC)cc3)cc2)cc1 (stereo unspecified)	98.1 °C
CCOCc1nc2c(N)nc3ccccc3c2n1NCc1ccccc1	152 to 155 °C
C=CCOn1cnc2c(Cl)nc(N)nc21	137 to 139 °C
O=C1NC(=O)C(c2c[nH]c3ccccc23)=C1c1ccccc1	256 °C
O=C1NC(=O)C(Cc2ccc(OCCN3c4ccccc4Sc4ccccc43)cc2)S1 (stereo unspecified)	68 to 70 °C
CC(C)(C)OC(=O)N1CCCC1COC(=O)N1CCN(c2cc(N3CCCC3)nc(N3CCCC3)n2)CC1 (single isomer, unassigned; (-))	147 °C
Cc1oc(-c2ccccc2)nc1CCOc1ccc(CCCC=C2OC(=O)NC2=O)cc1	152 to 153 °C
Cc1nc(CN2C(=O)COc3cc(N)ccc32)no1	146 to 148 °C
CCOC(=O)N1CCN(c2nn(-c3ccc(C(F)(F)F)cc3)c3ccccc23)CC1	123 to 126 °C
COCCN1C(=O)C(C)(C)C(=O)Nc2ccc(C#N)cc21	247 to 248 °C
COc1ccc(C(=O)NNC(=O)c2occ(-c3ccccc3)c2-c2ccccc2)cc1NS(C)(=O)=O	180 to 182 °C
Nc1nc2c(c(=O)[nH]1)n(CC(=O)O)c(=O)n2C1OC(CO)C(O)C1O (stereo unspecified)	> 230 °C
NS(=O)(=O)c1ccc(-c2noc(-c3cnn4c(C(F)(F)F)cc(-c5cccc(C(F)(F)F)c5)nc34)n2)cc1	300 °C
NS(=O)(=O)c1ccc(-n2nc(C(F)F)cc2-c2nc3cccc(Cl)c3s2)cc1	238 to 239 °C
CNc1c2c(nc3ccc([N+](=O)[O-])cc13)CCCC2=O	208 °C
CC(=O)NCC1CN(c2cc(F)c(N3CCN(C(=O)COC(=O)n4ccnc4)CC3)c(F)c2)C(=O)O1 (stereo unspecified)	199 to 200 °C

Source: a melting point compilation (Tetko et al.; mined from patent text by program, amines drawn as free bases though some values may be those of a salt)
